In brackets after ≈: the same amount, converted by molar mass. Read-outs that look alike come from different tables or passages of the source.
Experiments:
[1] = tested on: A fumigatus 1008; assay: MFC determination (subculture on Sabouraud Dextrose Agar); type: cell-based, Aspergillus fumigatus
Excerpt: (§1) The in-vitro evaluation of the antifungal activity of the compounds can be performed by determining the minimum inhibitory concentration (MIC) as shown in Table 1 which is the concentration of the test compound in Rosewell Park Memorial Institute (RPMI) 1640 liquid medium buffered with 3-(Morpholino)propanesulphonic acid (MOPS) to pH 7, at which there is significant inhibition of the particular fungi. In practice the National Committee for Clinical Laboratory Standard (NCCLS) M27A document for Candida and Cryptococcus and M38P for Aspergillus was used to determine the MIC against yeast and filamentous fungi with suitable modifications for dermatophytes to other filamentous fungi. Three quality control strains were included each time the MIC were determined and readings recorded only when the Quality Control results fell into the acceptable range. After MIC results had been recorded, 100 μl from each of the well showing no growth was spread over Sabouraud Dextrose Agar (SDA) to determine the minimum fungicidal concentration (MFC) as shown in Table 2.

[2] = tested on: A fumigatus SI-1 - 1019; assay: as above; type: cell-based, Aspergillus fumigatus
Excerpt: as §1

[3] = tested on: C krusei 6258; assay: MIC determination (NCCLS broth method); type: cell-based
Excerpt: as §1

[4] = tested on: H capsulatum; assay: MIC determination (NCCLS broth method); type: cell-based
Excerpt: as §1

[5] = tested on: Rhizopus 1052; assay: MIC determination (NCCLS broth method); type: cell-based
Excerpt: as §1

[6] = tested on: A flavus E3 - 1044; assay: MIC determination (NCCLS broth method); type: cell-based
Excerpt: as §1

[7] = tested on: C parapsilosis 22019; assay: MIC determination (NCCLS broth method); type: cell-based
Excerpt: as §1

[8] = tested on: A flavus P3 - 1041; assay: MIC determination (NCCLS broth method); type: cell-based
Excerpt: as §1

[9] = tested on: Penicillium 1641; assay: MIC determination (NCCLS broth method); type: cell-based
Excerpt: as §1

[10] = tested on: Penicillium 2548; assay: MIC determination (NCCLS broth method); type: cell-based
Excerpt: as §1

[11] = tested on: Penicillium H - 1048; assay: MIC determination (NCCLS broth method); type: cell-based
Excerpt: as §1

[12] = tested on: Mucor (Ceylon); assay: MIC determination (NCCLS broth method); type: cell-based
Excerpt: as §1

[13] = tested on: Fusarium 1050; assay: MIC determination (NCCLS broth method); type: cell-based
Excerpt: as §1

[14] = tested on: C tropicalis 750; assay: MIC determination (NCCLS broth method); type: cell-based
Excerpt: as §1

[15] = tested on: Penicillium 3162; assay: MIC determination (NCCLS broth method); type: cell-based
Excerpt: as §1

[16] = tested on: A flavus E4 - 1042; assay: MIC determination (NCCLS broth method); type: cell-based
Excerpt: as §1

[17] = tested on: C glabrata 90030; assay: MIC determination (NCCLS broth method); type: cell-based
Excerpt: as §1

[18] = tested on: Rhizopus (Ceylon); assay: MIC determination (NCCLS broth method); type: cell-based
Excerpt: as §1

[19] = tested on: All fungal pathogens; assay: Comparative in vitro MIC, isolate panel; type: cell-based
Excerpt: as §1
(§2) A comparative in vitro and in vivo biologically activity data of the compound of our invention, 2-{[1R,2R]-2-(2,4-Difluorophenyl)-2-hydroxy-1-methyl-3-(1H-1,2,4-triazole-1-yl)propyl}-4-[(2′,2′,3′,3′-tetrafluoropropoxyphenyl)-3-(2H,4H)-1,2,4-thiotriazolone (Compound No. 3) with 2-[(1R,2R)-2-(2,4-difluorophenyl)-2-hydroxy-1-methyl-3-(1H-1,2,4-triazol-1-yl)propyl]-4-(2′,2′,3′,3′-tetraflouropropoxyphenyl)-3(2H,4H)-1,2,4-triazolone (TAK 187) and standard antifungal pharmaceuticals is given below: […]

[20] = tested on: Penicillium spp. isolates; assay: Comparative in vitro MIC, isolate panel; type: cell-based
Excerpt: as §1, §2

[21] = tested on: All Filamentous isolates; assay: Comparative in vitro MIC, isolate panel; type: cell-based
Excerpt: as §1, §2

[22] = tested on: Fusarium spp. isolates; assay: Comparative in vitro MIC, isolate panel; type: cell-based
Excerpt: as §1, §2

[23] = tested on: Rhizoupus spp. isolates; assay: Comparative in vitro MIC, isolate panel; type: cell-based
Excerpt: as §1, §2

[24] = tested on: Aspergillus fumigatus isolates; assay: Comparative in vitro MIC, isolate panel; type: cell-based
Excerpt: as §1, §2

[25] = tested on: All Candida isolates; assay: Comparative in vitro MIC, isolate panel; type: cell-based
Excerpt: as §1, §2

[26] = tested on: Penicilliuim 2306; assay: MIC determination (NCCLS broth method); type: cell-based, Penicillium
Excerpt: as §1

[27] = tested on: P variotii 22319; assay: MIC determination (NCCLS broth method); type: cell-based, Paecillomyces variotii
Excerpt: as §1

[28] = tested on: A fumigatus 1008; assay: MIC determination (NCCLS broth method); type: cell-based, Aspergillus fumigatus
Excerpt: as §1

[29] = tested on: A fumigatus PGI - 1023; assay: MIC determination (NCCLS broth method); type: cell-based, Aspergillus fumigatus
Excerpt: as §1

[30] = tested on: A fumigatus SI-1 - 1019; assay: MIC determination (NCCLS broth method); type: cell-based, Aspergillus fumigatus
Excerpt: as §1

[31] = tested on: A fumigatus L - 1034; assay: MIC determination (NCCLS broth method); type: cell-based, Aspergillus fumigatus
Excerpt: as §1

[32] = tested on: A fumigatus K - 1033; assay: MIC determination (NCCLS broth method); type: cell-based, Aspergillus fumigatus
Excerpt: as §1

[33] = tested on: A fumigatus J - 1032; assay: MIC determination (NCCLS broth method); type: cell-based, Aspergillus fumigatus
Excerpt: as §1

[34] = tested on: A fumigatus I - 1011; assay: MIC determination (NCCLS broth method); type: cell-based, Aspergillus fumigatus
Excerpt: as §1

[35] = tested on: A fumigatus II - 1012; assay: MIC determination (NCCLS broth method); type: cell-based, Aspergillus fumigatus
Excerpt: as §1

[36] = tested on: P variotii 22319; assay: MFC determination (subculture on Sabouraud Dextrose Agar); type: cell-based, Paecillomyces variotii
Excerpt: as §1

[37] = tested on: C neoformans M-106; assay: MIC determination (NCCLS broth method); type: cell-based, Cryptococcus neoformans
Excerpt: as §1

[38] = tested on: C neoformans I; assay: MIC determination (NCCLS broth method); type: cell-based, Cryptococcus neoformans
Excerpt: as §1

[39] = read-out: Minimum Inhibitory Concentration (MIC)

OC(Cn1cncn1)(Cn1cncn1)c1ccc(F)cc1F [Fluconazole]
MFC ([1]; Aspergillus fumigatus, read-out: Minimum Fungicidal Concentration (MFC)): > 128 µg/mL
MFC ([2]; Aspergillus fumigatus, SI11019, read-out: Minimum Fungicidal Concentration (MFC)): > 128 µg/mL
MIC [3, 39]: 32 µg/mL (≈ 104 µM)
MIC [4, 39]: 4 µg/mL (≈ 13.1 µM)
MIC [5, 39]: > 128 µg/mL
MIC [6, 39]: > 128 µg/mL
MIC [7, 39]: 2 µg/mL (≈ 6.53 µM)
MIC [8, 39]: > 128 µg/mL
MIC [9, 39]: 64 µg/mL (≈ 209 µM)
MIC [10, 39]: 128 µg/mL (≈ 418 µM)
MIC ([11]; H1048, read-out: Minimum Inhibitory Concentration (MIC)): > 128 µg/mL
MIC [12, 39]: > 128 µg/mL
MIC [13, 39]: > 128 µg/mL
MIC [14, 39]: 0.5 µg/mL (≈ 1.63 µM)
MIC [15, 39]: > 128 µg/mL
MIC [16, 39]: > 128 µg/mL
MIC [17, 39]: 4 µg/mL (≈ 13.1 µM)
MIC [18, 39]: > 128 µg/mL
MIC [19]: 105 µg/mL (≈ 343 µM)
MIC [20]: 174 µg/mL (≈ 569 µM)
MIC50 ([20]; read-out: MIC50): 256 µg/mL (≈ 836 µM)
MIC90 ([20]; read-out: MIC90): 256 µg/mL (≈ 836 µM)
MIC [21]: 199 µg/mL (≈ 650 µM)
MIC [22]: 256 µg/mL (≈ 836 µM)
MIC50 ([22]; read-out: MIC50): 256 µg/mL (≈ 836 µM)
MIC90 ([22]; read-out: MIC90): 256 µg/mL (≈ 836 µM)
MIC [23]: 256 µg/mL (≈ 836 µM)
MIC50 ([23]; read-out: MIC50): 256 µg/mL (≈ 836 µM)
MIC90 ([23]; read-out: MIC90): 256 µg/mL (≈ 836 µM)
MIC [24]: 256 µg/mL (≈ 836 µM)
MIC50 ([24]; read-out: MIC50): 256 µg/mL (≈ 836 µM)
MIC90 ([24]; read-out: MIC90): 256 µg/mL (≈ 836 µM)
MIC [25]: 5.3 µg/mL (≈ 17.3 µM)
MIC50 ([25]; read-out: MIC50): 8 µg/mL (≈ 26.1 µM)
MIC90 ([25]; read-out: MIC90): 128 µg/mL (≈ 418 µM)
MIC ([26]; Penicillium, read-out: Minimum Inhibitory Concentration (MIC)): > 128 µg/mL
MIC [27, 39]: > 128 µg/mL
MIC ([28]; Aspergillus fumigatus, read-out: Minimum Inhibitory Concentration (MIC)): > 128 µg/mL
MIC ([29]; Aspergillus fumigatus, PGI1023, read-out: Minimum Inhibitory Concentration (MIC)): > 128 µg/mL
MIC ([30]; Aspergillus fumigatus, SI11019, read-out: Minimum Inhibitory Concentration (MIC)): > 128 µg/mL
MIC ([31]; Aspergillus fumigatus, L1034, read-out: Minimum Inhibitory Concentration (MIC)): > 128 µg/mL
MIC ([32]; Aspergillus fumigatus, K1033, read-out: Minimum Inhibitory Concentration (MIC)): > 128 µg/mL
MIC ([33]; Aspergillus fumigatus, J1032, read-out: Minimum Inhibitory Concentration (MIC)): > 128 µg/mL
MIC ([34]; Aspergillus fumigatus, I1011, read-out: Minimum Inhibitory Concentration (MIC)): > 128 µg/mL
MIC ([35]; Aspergillus fumigatus, II1012, read-out: Minimum Inhibitory Concentration (MIC)): > 128 µg/mL
MFC ([36]; read-out: Minimum Fungicidal Concentration (MFC)): > 128 µg/mL
MIC ([37]; Cryptococcus neoformans, M106, read-out: Minimum Inhibitory Concentration (MIC)): 4 µg/mL (≈ 13.1 µM)
MIC ([38]; Cryptococcus neoformans, read-out: Minimum Inhibitory Concentration (MIC)): 1 µg/mL (≈ 3.27 µM)

C[C@@H](n1ncn(-c2ccc(OCC(F)(F)C(F)F)cc2)c1=O)[C@](O)(Cn1cncn1)c1ccc(F)cc1F [TAK 187, 2-[(1R,2R)-2-(2,4-difluorophenyl)-2-hydroxy-1-methyl-3-(1H-1,2,4-triazol-1-yl)propyl]-4-(2′,2′,3′,3′-tetraflouropropoxyphenyl)-3(2H,4H)-1,2,4-triazolone]
Minimum Fungicidal Concentration (MFC) [1]: 8 µg/mL
Minimum Fungicidal Concentration (MFC) [2]: 32 µg/mL
Minimum Inhibitory Concentration (MIC) [3]: 2 µg/mL
Minimum Inhibitory Concentration (MIC) [4]: 0.25 µg/mL
Minimum Inhibitory Concentration (MIC) [5]: 8 µg/mL
Minimum Inhibitory Concentration (MIC) [6]: 1 µg/mL
Minimum Inhibitory Concentration (MIC) [7]: 0.03 µg/mL
Minimum Inhibitory Concentration (MIC) [8]: 8 µg/mL
Minimum Inhibitory Concentration (MIC) [9]: 16 µg/mL
Minimum Inhibitory Concentration (MIC) [10]: 16 µg/mL
Minimum Inhibitory Concentration (MIC) [11]: 16 µg/mL
Minimum Inhibitory Concentration (MIC) [12]: 8 µg/mL
Minimum Inhibitory Concentration (MIC) [13]: 64 µg/mL
Minimum Inhibitory Concentration (MIC) [14]: 0.125 µg/mL
Minimum Inhibitory Concentration (MIC) [15]: 32 µg/mL
Minimum Inhibitory Concentration (MIC) [16]: 4 µg/mL
Minimum Inhibitory Concentration (MIC) [17]: 0.5 µg/mL
Minimum Inhibitory Concentration (MIC) [18]: 2 µg/mL
MIC50 [19]: 8 µg/mL (≈ 14.7 µM)
MIC90 [19]: 32 µg/mL (≈ 59 µM)
MIC G.M. [19]: 4.16 µg/mL (≈ 7.67 µM)
MIC50 [20]: 16 µg/mL (≈ 29.5 µM)
MIC90 [20]: 64 µg/mL (≈ 118 µM)
MIC G.M. [20]: 18.664 µg/mL (≈ 34.4 µM)
MIC50 [21]: 8 µg/mL (≈ 14.7 µM)
MIC90 [21]: 32 µg/mL (≈ 59 µM)
MIC G.M. [21]: 7.246 µg/mL (≈ 13.4 µM)
MIC50 [22]: 32 µg/mL (≈ 59 µM)
MIC90 [22]: 64 µg/mL (≈ 118 µM)
MIC G.M. [22]: 45.255 µg/mL (≈ 83.4 µM)
MIC50 [23]: 4 µg/mL (≈ 7.37 µM)
MIC90 [23]: 4 µg/mL (≈ 7.37 µM)
MIC G.M. [23]: 4 µg/mL (≈ 7.37 µM)
MIC50 [24]: 8 µg/mL (≈ 14.7 µM)
MIC90 [24]: 8 µg/mL (≈ 14.7 µM)
MIC G.M. [24]: 7.4 µg/mL (≈ 13.6 µM)
MIC50 [25]: 0.5 µg/mL (≈ 0.922 µM)
MIC90 [25]: 2 µg/mL (≈ 3.69 µM)
MIC G.M. [25]: 0.45 µg/mL (≈ 0.83 µM)
Minimum Inhibitory Concentration (MIC) [26]: 8 µg/mL
Minimum Inhibitory Concentration (MIC) [27]: 0.25 µg/mL
Minimum Inhibitory Concentration (MIC) [28]: 4 µg/mL
Minimum Inhibitory Concentration (MIC) [29]: 8 µg/mL
Minimum Inhibitory Concentration (MIC) [30]: 2 µg/mL
Minimum Inhibitory Concentration (MIC) [31]: 4 µg/mL
Minimum Inhibitory Concentration (MIC) [32]: 8 µg/mL
Minimum Inhibitory Concentration (MIC) [33]: 4 µg/mL
Minimum Inhibitory Concentration (MIC) [34]: 4 µg/mL
Minimum Inhibitory Concentration (MIC) [35]: 8 µg/mL
Minimum Fungicidal Concentration (MFC) [36]: 32 µg/mL
Minimum Inhibitory Concentration (MIC) [37]: 0.06 µg/mL
Minimum Inhibitory Concentration (MIC) [38]: 0.03 µg/mL

From US6710049B2, “Azole compounds as anti-fungal agents” (Ranbaxy Laboratories Limited, priority 2000, dated 2004)
